From patent US20250154152A1, “INHIBITORS OF NAEGLERIA FOWLERI” (Wisconsin Alumni Research Foundation, priority 2023, published 2025)

tested on: N. fowleri strain Nf69 (ATCC 30215) trophozoites; assay: Determination of EC50 values against Naegleria fowleri (growth inhibition, CellTiter Glo, 48 h); type: cell-based; conditions: ATCC30215, N. fowleri Nf69 trophozoites, 48 h culture, 37° C., CellTiter Glo luminescence, read-out: EC50 uM against N. fowleri
Method: N. fowleri strain Nf69 (ATCC 30215) trophozoites were cultured axenically. Amoeba were seeded at […] in 100 μL of the indicated medium in white TC-treated 96-well plates (Thermo Scientific Nunc Microwell 136101). Cells were seeded into Nelson's Complete Media (NCM, 0.17% liver infusion broth (BD Difco, Franklin Lakes, NJ), 0.17% glucose, 0.012% sodium chloride, 0.0136% potassium phosphate monobasic, 0.0142% sodium phosphate dibasic, 0.0004% calcium chloride, 0.0002% magnesium sulfate, 10% heat-inactivated fetal bovine serum (FBS), 1% penicillin-streptomycin) at 37° C. in 96-well tissue culture plates. Vehicle or compound at concentrations initially ranging from 20 to 0.375 μM were added to cells, followed by culture for 48 h (37° C., 5% CO2). Plates were equilibrated to rt for 15 min and CellTiter Glo reagent was added followed by orbital shaking for 2 min. After an additional incubation (rt, 10 min), luminescence was scored on a BioTek Synergy H1 microplate reader. Luminescence values were used to calculate percent cell growth inhibition (based on controls) for each concentration of compound tested. Averages of triplicates were calculated and fit to dose-response curves for the determination of EC50 values, using Prism 9.0 (GraphPad Software, San Diego, CA). […] Other controls included media alone, cells and media, and vehicle and media. For very potent compounds, concentration of reagent in the dose-response assays were reduced to provide an appropriate range for EC50 value resolution.
Compounds of the present technology were tested for growth inhibition of N. fowleri per General Procedure 13, above.

Row | Structure (SMILES) | EC50 [µM]
1 | O=c1c2cc(Cl)c(Cl)cc2nc([C@@H]2CCCN(CC3COC3)C2)n1CCN1CCOCC1 [Compound R-14m, (R)-6,7-dichloro-3-(2-morpholinoethyl)-2-(1-(oxetan-3-ylmethyl)piperidin-3-yl)quinazolin-4(3H)-one] | > 10
2 | O=c1c2cc(Cl)ccc2nc2n1CC[C@H]1NCCC[C@H]21 (racemic) [trans-6a, (±)-(4aR,13bS)-10-chloro-1,2,3,4,4a,5,6,13b-octahydro-8H-[1,6]naphthyridino[5,6-b]quinazolin-8-one] | 1 to 10
3 | CN1CCC[C@H]2c3nc4ccc(C(F)(F)F)cc4c(=O)n3CC[C@H]21 (racemic) [cis-5j, (±)-(4aR,13bR)-4-methyl-10-(trifluoromethyl)-1,2,3,4,4a,5,6,13b-octahydro-8H-[1,6]naphthyridino[5,6-b]quinazolin-8-one] | 0.1 to 1
4 | Cn1c([C@@H]2CCCN(CC(C)(C)O)C2)nc2cc(Cl)c(Cl)cc2c1=O [Compound R-14h, (R)-6,7-dichloro-2-(1-(2-hydroxy-2-methylpropyl)piperidin-3-yl)-3-methylquinazolin-4(3H)-one] | > 10
5 | CN1CCC[C@@H]2c3nc4ccc(Cl)cc4c(=O)n3CC[C@H]21 [trans-10a-ent 1, (4aR,13bS)-10-chloro-4-methyl-1,2,3,4,4a,5,6,13b-octahydro-8H-[1,6]naphthyridino[5,6-b]quinazolin-8-one] | 0.1 to 1
6 | COc1cc(Cl)cc2c(=O)n3c(nc12)[C@@H]1CCCN(C)[C@@H]1CC3 (racemic) [cis-5t, (±)-(4aR,13bR)-10-chloro-12-methoxy-4-methyl-1,2,3,4,4a,5,6,13b-octahydro-8H-[1,6]naphthyridino[5,6-b]quinazolin-8-one] | > 10
7 | COc1cc2nc3n(c(=O)c2cc1Cl)CC[C@@H]1[C@H]3CCCN1C (racemic) [cis-5gg, (±)-(4aR,13bR)-10-chloro-11-methoxy-4-methyl-1,2,3,4,4a,5,6,13b-octahydro-8H-[1,6]naphthyridino[5,6-b]quinazolin-8-one] | 0.1 to 1
8 | O=C(c1ccccc1)N1CCC[C@@H]2c3nc4cc(Cl)c(Cl)cc4c(=O)n3CC[C@H]21 (racemic) [trans-7h, (±)-(4aR,13bS)-4-benzoyl-10,11-dichloro-1,2,3,4,4a,5,6,13b-octahydro-8H-[1,6]naphthyridino[5,6-b]quinazolin-8-one] | > 10
9 | Cn1c([C@@H]2CCCN(Cc3ccccn3)C2)nc2cc(Cl)c(Cl)cc2c1=O [Compound R-14w, (R)-6,7-dichloro-3-methyl-2-(1-(pyridin-2-ylmethyl)piperidin-3-yl)quinazolin-4(3H)-one] | > 10
10 | O=c1c2cc(Cl)c(Cl)cc2nc2n1CC[C@@H]1[C@@H]2CCCN1Cc1ccc(Cl)cc1 (racemic) [Compound 7t, (±)-(4aR,13bS)-10,11-dichloro-4-(4-chlorobenzyl)-1,2,3,4,4a,5,6,13b-octahydro-8H-[1,6]naphthyridino[5,6-b]quinazolin-8-one] | > 10
11 | Cn1c([C@@H]2CCCN(CCN3CCOCC3)C2)nc2cc(Cl)c(Cl)cc2c1=O [Compound R-14bb, (R)-6,7-dichloro-3-methyl-2-(1-(2-morpholinoethyl)piperidin-3-yl)quinazolin-4(3H)-one] | 1 to 10
12 | COc1cc(CN2CCC[C@@H]3c4nc5cc(Cl)c(Cl)cc5c(=O)n4CC[C@H]32)cc(OC)c1 (racemic) [trans-7n, (±)-(4aR,13bS)-10,11-dichloro-4-(3,5-dimethoxybenzyl)-1,2,3,4,4a,5,6,13b-octahydro-8H-[1,6]naphthyridino[5,6-b]quinazolin-8-one] | 0.0001 to 0.1
13 | Cn1c([C@@H]2CCCN(Cc3cccnc3)C2)nc2cc(Cl)c(Cl)cc2c1=O [Compound R-14v, (R)-6,7-dichloro-3-methyl-2-(1-(pyridin-3-ylmethyl)piperidin-3-yl)quinazolin-4(3H)-one] | > 10
14 | COc1cc2nc3n(c(=O)c2cc1Cl)CC[C@@H]1[C@@H]3CCCN1CC(C)C (racemic) [trans-7ee, (±)-(4aR,13bS)-10-chloro-4-isobutyl-11-methoxy-1,2,3,4,4a,5,6,13b-octahydro-8H-[1,6]naphthyridino[5,6-b]quinazolin-8-one] | 0.1 to 1
15 | CN1CC[C@H]2c3nc4ccccc4c(=O)n3CC[C@H]21 (racemic) [cis-5cc, (±)-(3aR,12bR)-3-methyl-2,3,3a,4,5,12b-hexahydropyrrolo[3′,2′:3,4]pyrido[2,1-b]quinazolin-7(1H)-one] | > 10
16 | O=c1c2cc(Cl)c(Cl)cc2nc2n1CC[C@@H]1[C@@H]2CCCN1CC1CCOCC1 (racemic) [trans-7b, (±)-(4aR,13bS)-10,11-dichloro-4-((tetrahydro-2H-pyran-4-yl)methyl)-1,2,3,4,4a,5,6,13b-octahydro-8H-[1,6]naphthyridino[5,6-b]quinazolin-8-one] | 0.0001 to 0.1
17 | Cn1c([C@@H]2CCCN(Cc3ccncc3)C2)nc2cc(Cl)c(Cl)cc2c1=O [Compound R-14u, (R)-6,7-dichloro-3-methyl-2-(1-(pyridin-4-ylmethyl)piperidin-3-yl)quinazolin-4(3H)-one] | > 10
18 | CC(C)N1CCC[C@@H]2c3nc4cc(Cl)c(Cl)cc4c(=O)n3CC[C@H]21 (racemic) [trans-7a, (±)-(4aR,13bS)-10,11-dichloro-4-isopropyl-1,2,3,4,4a,5,6,13b-octahydro-8H-[1,6]naphthyridino[5,6-b]quinazolin-8-one] | 0.0001 to 0.1
19 | CN1CC[C@H]2c3nc4cc(F)c(F)cc4c(=O)n3CC[C@H]21 (racemic) [cis-5ee, (±)-(3aR,12bR)-9,10-difluoro-3-methyl-2,3,3a,4,5,12b-hexahydropyrrolo[3′,2′:3,4]pyrido[2,1-b]quinazolin-7(1H)-one] | > 10
20 | CN1CCC[C@@H]2c3nc4ccc(F)cc4c(=O)n3CC[C@H]21 (racemic) [trans-5f, (±)-(4aR,13bS)-10-fluoro-4-methyl-1,2,3,4,4a,5,6,13b-octahydro-8H-[1,6]naphthyridino[5,6-b]quinazolin-8-one] | > 10
21 | O=c1c2cc(Cl)c(Cl)cc2nc2n1CC[C@@H]1[C@@H]2CCCN1CCO (racemic) [trans-7j, (±)-(4aR,13bS)-10,11-dichloro-4-(2-hydroxyethyl)-1,2,3,4,4a,5,6,13b-octahydro-8H-[1,6]naphthyridino[5,6-b]quinazolin-8-one] | 0.0001 to 0.1
22 | COc1cc2nc3n(c(=O)c2cc1Cl)CC[C@H]1NCCC[C@H]31 (racemic) [trans-6c, (±)-(4aR,13bS)-10-chloro-11-methoxy-1,2,3,4,4a,5,6,13b-octahydro-8H-[1,6]naphthyridino[5,6-b]quinazolin-8-one] | 1 to 10
23 | O=c1c2cc(Cl)c(Cl)cc2nc2n1CC[C@@H]1[C@@H]2CCCN1Cc1ccncc1 (racemic) [trans-7k, (±)-(4aR,13bS)-10,11-dichloro-4-(pyridin-4-ylmethyl)-1,2,3,4,4a,5,6,13b-octahydro-8H-[1,6]naphthyridino[5,6-b]quinazolin-8-one] | 0.1 to 1
24 | CN1CCC[C@@H]2c3nc4ccc(C#N)cc4c(=O)n3CC[C@H]21 (racemic) [trans-5i, (±)-(4aR,13bS)-4-methyl-8-oxo-2,3,4,4a,5,6,8,13b-octahydro-1H-[1,6]naphthyridino[5,6-b]quinazoline-10-carbonitrile] | 0.1 to 1
25 | Cn1c([C@H]2CCCN(CC3CCOCC3)C2)nc2cc(Cl)c(Cl)cc2c1=O [Compound S-14c, (S)-6,7-dichloro-3-methyl-2-(1-((tetrahydro-2H-pyran-4-yl)methyl)piperidin-3-yl)quinazolin-4(3H)-one] | > 10
26 | COc1cc2nc3n(c(=O)c2cc1Cl)CC[C@@H]1[C@@H]3CCCN1CCN1CCOCC1 (racemic) [trans-7mm, (±)-(4aR,13bS)-10-chloro-11-methoxy-4-(2-morpholinoethyl)-1,2,3,4,4a,5,6,13b-octahydro-8H-[1,6]naphthyridino[5,6-b]quinazolin-8-one] | 0.1 to 1
27 | CN1CCC[C@H]2c3nc4cc(Br)ccc4c(=O)n3CC[C@H]21 (racemic) [cis-5l, (±)-(4aR,13bR)-11-bromo-4-methyl-1,2,3,4,4a,5,6,13b-octahydro-8H-[1,6]naphthyridino[5,6-b]quinazolin-8-one] | 1 to 10
28 | Cn1c([C@@H]2CCCN(CC3COC3)C2)nc2ccc(Cl)cc2c1=O [Compound R-14p, (R)-6-chloro-3-methyl-2-(1-(oxetan-3-ylmethyl)piperidin-3-yl)quinazolin-4(3H)-one] | > 10
29 | CN1CCO[C@@H]2c3nc4ccccc4c(=O)n3CC[C@H]21 (racemic) [trans-5v, (±)-(4aR,13bS)-4-methyl-3,4,4a,5,6,13b-hexahydro-[1,4]oxazino[2′,3′:3,4]pyrido[2,1-b]quinazolin-8(2H)-one] | > 10
30 | O=c1c2cc(Cl)c(Cl)cc2nc2n1CC[C@@H]1[C@@H]2CCCN1Cc1ccc(Cl)cc1Cl (racemic) [Compound 7v, (±)-(4aR,13bS)-10,11-dichloro-4-(2,4-dichlorobenzyl)-1,2,3,4,4a,5,6,13b-octahydro-8H-[1,6]naphthyridino[5,6-b]quinazolin-8-one] | > 10
